Melting point data for 87 compounds are collected here from a melting point compilation (Tetko et al.; mined from patent text by program, amines drawn as free bases though some values may be those of a salt).

The term melting point denotes the temperature, or range, at which the solid turns liquid.

Regarding `CCC(Oc1cccc(C(F)(F)F)c1)C(=O)OC1CC(O)C=C2C=CC(C)C(CCC3CC(O)CC(=O)O3)C21` (mixture of isomers), the melting point was 135 to 137 °C.
The result for `NC(=O)N(O)CC(=O)N(Cc1cccs1)c1ccc(Br)cc1` reads 76 to 79.5 °C.
As to `C=C(c1ccc(OC)c(C)c1)c1ccc(C)c(Br)c1`, the melting point was 48 to 51 °C.
`CC(C)(C)OC(=O)N1CCC(c2cc(F)ccc2F)(S(=O)(=O)c2ccc(Cl)cc2)CC1` came in with a melting point of 101 to 106 °C.
`CC(C)=CC(O)C(Cl)(Cl)Cl` (configuration not stated) returned a melting point of 83 °C.
Turning to `O=C(O)CCCCCNS(=O)(=O)c1ccc(Cl)cc1`, the melting point fell in the range of 126 to 127 °C.
The compound `CNC(=O)c1cc(-c2ccc(OC)c(F)c2)nn(CC2CC2)c1=O` returned a melting point of 140 to 141 °C.
The compound `CCCCC(Cc1cccnc1)(C(=O)NO)S(=O)(=O)c1ccc(OC)cc1` (configuration not stated) registered a melting point of 65 °C.
The result for `O=C(COc1ccc(C(=O)C(=O)O)cc1)NC1CCCCCCC1` reads 139 to 140 °C; that for `CCN(CC)CCNC(=O)N(CCS(=O)(=O)c1ccc(OC)cc1)C(C)C`, 39.5 to 42 °C.
The result for `NC(=O)NCCCCCCNC(N)=O` reads 197 to 200 °C; that for `COc1cc(SC)ccc1C(=O)c1cnoc1C1CC1`, 108 °C.
As to `O=c1c2ccc(Cl)cc2[nH]c2c(O)nn(Cc3ccccc3F)c(=O)c12`, the melting point came out at 215 °C.
Compound `CC(C)(C)OC(=O)N1CCC[C@H]1COc1cccc2[nH]ncc12` yielded a melting point of 125 °C.
On to `CC(=O)OCC1OC(n2cc(C3=C(c4c[nH]c5ncccc45)C(=O)N(COCc4ccccc4)C3=O)c3cccnc32)C(OC(C)=O)C(OC(C)=O)C1OC(C)=O` (configuration not stated), for which the melting point lay in the range of 127 to 129 °C.
For the compound `Cc1cc2c(cc1C(C)SCC(=O)O)OCO2` (configuration not stated), the melting point was 93.5 to 94.5 °C.
The result for `Cc1ccc2c(C3CCN(CC#N)CC3)cn(-c3ccc(F)cc3)c2c1` reads 101 to 103 °C.
Consider `CN1CCN(NC(=O)c2cc([N+](=O)[O-])cc3c2OCCO3)CC1`, for which the melting point was found to be 210 °C.
With `CCCCC(O)c1c(C(C)C)nc(C(C)C)c(CO)c1-c1ccc(F)cc1` (configuration not stated), the melting point was in the range of 166 to 168 °C.
As for `COc1ccc(NC(=O)c2ccc(OC)c3oc4ccc(NC(C)=O)cc4c23)cc1`, the melting point worked out at 285 °C.
The same measure for `CC(C)(C)NC(=O)Nc1nc2nc(NCCCN3CCOCC3)ncc2cc1-c1c(Cl)cccc1Cl`: 236 to 240 °C; for `CC(=NO)c1ccc2c(c1)oc1ccccc12`: 132 to 135 °C; for `Oc1ccccc1-c1nc(-c2ccccc2O)nc(-c2ccccc2O)n1`: 147 to 149 °C.
The same measure for `CCc1nc2cc(C(F)(F)F)c(Cl)cc2n1-c1ccc(CCOC(=O)NS(=O)(=O)c2cn(C)c(C)n2)cc1`: 221 °C; for `NS(=O)(=O)c1cccc(-c2nc(-c3cnn4c(C(F)(F)F)cc(-c5ccc(C(F)(F)F)cc5)nc34)no2)c1`: 285 °C; for `CC(C)(C)C(=O)Oc1ccc(C(=O)c2ccc(OC(=O)C(C)(C)C)cc2OC(=O)C(C)(C)C)cc1`: 94 to 96 °C.
The result for `CCCCNc1nc(-c2ccc(=O)n(C)n2)c(-c2ccccc2)nc1N` reads 253 to 255 °C; that for `O=C(CO)NCCCCCCCCCCNC(=O)CO`, 120 to 122 °C.
`Cc1ccc(S(=O)(=O)N(Cc2ccc(C#N)cc2F)C2CCC2)cc1` came in with a melting point of 146 to 147 °C.
As to `CCN(CC)C(=O)c1ccccc1C(C)(C)C`, the melting point was in the range of 38.5 to 40.5 °C.
As for `CCOC(=O)CNC1=C(C(=O)c2cccnc2Cl)CCC1`, the melting point was in the range of 114 to 118 °C.
The same measure for `CCn1cc(-c2nc(C(N)=O)c(N)nc2-c2ccccc2)ccc1=O`: greater than 250 °C; for `Nc1nc(NCCSSCCNc2n[nH]c(N)n2)n[nH]1`: 231 to 233 °C; for `CN(Cc1cccc2c1CN(C1CCC(=O)NC1=O)C2=O)C(=O)Nc1cc(Cl)cc(Cl)c1` (configuration not stated): 285 to 287 °C.
`CCOC(=O)C(C)Oc1ccc(Oc2nc3ccccc3cc2Cl)cc1` (configuration not stated): the melting point is 86 °C.
The compound `CCC(CC)n1ccn(-c2ccc(N3CCN(c4ccc(OC)cc4)CC3)cc2)c1=O` had a melting point of 196 °C.
With `COC(=O)c1ccc(S(=O)(=O)C[N+](=O)[O-])cc1`, the melting point is 106 to 108 °C.
The result for `CCN(C(C)=O)c1cccc(C(=O)C=CN(C)C)c1` reads 110 to 113 °C; that for `CO[C@@H]1CN(Cc2ccccc2)CC[C@H]1NC(=O)c1cccc(C(F)(F)F)c1` (relative stereo), 135 °C.
The same measure for `CC(C)C(=O)Nc1cn(-c2cncc(F)c2)nc1CCl`: 172 to 177 °C; for `CC1(C)CC(NC(=O)c2cc(Cl)cc(NC=O)c2O)CC(C)(C)C1`: 214 to 215 °C; for `Oc1nc2cc(Cl)ccc2n2cnnc12`: greater than 300 °C.
The compound `Clc1cc2cc[nH]c2cn1` showed a melting point of 192 to 194 °C.
The result for `CC(C)OCCCNC(=O)c1n[nH]cc1NC(=O)c1ccccn1` reads 152 to 153 °C; that for `COC(=O)COc1ccc(OCC2CCN(c3ccncc3)CC2)cc1`, 127 to 129 °C; that for `Nc1sccc1C(=O)c1ccc(Cl)cc1`, 178 to 180 °C.
The result for `Cc1cnc(C)c(N(CCN(C)C)C(=O)N(C)C)n1` reads 96 to 98 °C.
On to `CCN1C(=O)CC2(CNC(=O)C2)C1=O` (configuration not stated), for which the melting point is 168 to 169 °C.
Turning to `COc1ccc(C(=O)c2ccc(OCc3nc(-c4ccccc4)oc3C)nc2)c(O)c1`, the melting point lay in the range of 137 to 138 °C.
Consider `CC(C)(C)C(=O)n1c(=O)n(CCN2CCC(=C(c3ccc(F)cc3)c3ccc(F)cc3)CC2)c(=O)c2cscc21`, for which the melting point was 69 to 72 °C.
The result for `CCc1ccc(OC(C)(C)C(=O)O)cc1OCCCc1cn(-c2ccc(C(F)(F)F)cn2)nc1C(C)C` reads 115 to 116 °C; that for `CC(=O)N(O)Cc1cccc(C#Cc2ccccc2)c1`, 91 to 93 °C.
`CS(=O)(=O)Nc1cccc(Nc2nc(N3CCN(c4ccncc4)CC3)c3nc[nH]c3n2)c1` gave a melting point of 227 to 230 °C.
The same measure for `O=C(NCCCCCCNC(=O)c1ccc(Oc2ccccc2)cc1)c1ccc(Oc2ccccc2)cc1`: 183 to 184 °C.
The result for `COc1ccc(-n2c(SC)nc3cc(OC)cc(OC)c3c2=O)cc1` reads 212 to 215 °C.
The same measure for `CCOC1Nc2c(O)cccc2C(=O)N2CCCC12` (configuration not stated): 153 to 155 °C; for `CN1CCC(=C2c3ccccc3COc3cc(Cl)ccc32)CC1`: 113 to 116 °C.
The compound `Cc1c(C=O)ncn1Cc1ccccc1` registered a melting point of 107 to 110 °C.
For the compound `CCCC1CC(=O)c2c(NC(=O)C(=O)OCC)ccc(C)c21` (configuration not stated), the melting point lay within 84 to 86 °C.
The same measure for `CC(=O)c1ccc(-n2c(CCl)nc3ccccc3c2=O)cc1`: 180 to 181 °C.
The same measure for `O=C(CN1CCN(C(=O)CCCCCS)CC1)Nc1nc2ccccc2s1`: 89 to 92 °C; for `O=C(O)C1CCc2c(oc3ccc(Cl)cc23)C1` (configuration not stated): 194 to 198 °C; for `c1ccc2c(c1)C[C@H]1CSC(=Nc3csc4ncccc34)N1C2`: 145 to 146 °C.
The same measure for `CCOC(=O)C1=C(C)NC(C#N)=C(C(=O)OCC)C1c1ccccc1C(=O)OC` (configuration not stated): 126 to 127 °C; for `O=C(O)C(Cc1ccc(OCCn2c(-c3ccccc3)nc3ccccc32)cc1)n1cccc1` (configuration not stated): 210 to 212 °C; for `COc1cc2c(Nc3ccc(Cl)cc3F)ncnc2cc1OCCN1CCS(=O)(=O)CC1`: 246 to 249 °C.
The compound `COc1c(-c2ccccc2)csc1-c1cnn2c(O)ccnc12` displayed a melting point of 234 to 236 °C.
With `Cc1ccc(N(c2ccc(-c3ccccc3)cc2)c2ccc(C)c(C)c2)cc1C`, the melting point was determined as 114 °C.
Take `Cc1ccccc1CCC(=O)NCc1ncc(C(F)(F)F)cc1Cl`: the melting point was 152 to 153 °C.
The same measure for `Cc1cc(N2CCN(c3c(C)c(C)c4c(c3C)CC(C)(C)O4)CC2)ccc1Cl`: 168 to 171 °C; for `O=CCCOC(c1ccccc1)(c1ccccc1)c1ccccc1`: 97 to 98 °C.
The same measure for `NS(=O)(=O)c1ccco1`: 120 to 122 °C.
The same measure for `COc1ccc(Cc2nccc3c4c(ccc23)OCO4)cc1OC`: 111 °C.
`FC(F)(F)c1ccc2c(c1)Sc1ccccc1NC2=S` registered a melting point of 236 to 239 °C.
The result for `CCOC(=O)c1ncn(-c2nc(C)cs2)c1S` reads 193 to 195 °C; that for `CCCc1c(OCCCCOCCCCOc2c(C(C)=O)ccc(OCC(=O)O)c2CCC)ccc(C(C)=O)c1O`, 68 to 71 °C; that for `COc1ccc(Cn2c(=O)c3cnc(Nc4ccc(N5CCN(C)CC5)cc4)nc3n(C(C)C)c2=O)cc1`, 215 to 216 °C.
The same measure for `CCCCC(CC)COC(=O)C(C#N)=Cc1ccc(NC(C)=O)cc1` (configuration not stated): 119 °C.
`CCCCC(=O)c1c(CSc2nccn2C)nc2cc(OC)c(OC)cc2c1-c1ccc(OC)c(OC)c1` had a melting point of 125 to 127 °C.
In turn, `CCCN(CCC)S(=O)(=O)c1cccc(C(=O)Nc2cccc([N+](=O)[O-])c2)c1` displayed a melting point of 126 to 128 °C.
In the case of `CCCOC(=O)C1=C(N)NC(C)=C(C(=O)OC(C)C)C1c1cccc([N+](=O)[O-])c1` (configuration not stated), the melting point was found to be 199 °C.
`CC(C)NC(=O)N1CC(Oc2ccc(C(F)(F)F)cc2)C1` showed a melting point of 151 to 152 °C.
The result for `Cc1cccc2c(C(=O)O)cc(-c3ccccn3)nc12` reads 319 to 320 °C; that for `COC(=O)C1=C(C)NC(C)=C(C(=O)OCCCCCCCCCCO)[C@H]1c1cccc2nonc12`, 120 °C; that for `COc1cccc(-c2nc3c(C(N)=O)cccc3[nH]2)c1`, 93 to 94 °C.
On to `Cn1nncc1COc1nn2c(-c3ccccc3)nnc2cc1-c1ccccc1`, for which the melting point lay within 190 to 193 °C.
The result for `O=C(O)Cn1c(=O)c(=O)[nH]c2cc([N+](=O)[O-])c(-n3ccc(CN4CCCCC4)c3)cc21` reads greater than 250 °C.
